Data published in patent publication US6369035B1, “3,6-hemiketals from the class of 9A-azalides” (Pliva, farmaceutska industrja, dionicko …, priority 1997, dated 2002).
≈ marks a conversion by molar mass, not a printed value. Read-outs that look alike come from different tables or passages of the source. Blank lines part the entries; values can stand above or below the compound they belong to.

Assays:
[1] = tested on: S. eperidermidis ATCC 12228; experiment: Antibacterial in vitro activity, MIC by double dilution, standard strains; format: cell-based; conditions: Mueller-Hinton medium, 37° C., 18 hours
Description: (§1) Antibacterial in vitro activity of the novel compounds of the general formula (I) and their pharmaceutically acceptable addition salts with inorganic or organic acids on a series of standard test-microorganisms was determined in a Mueller-Hinton medium (Difco-Laboratories, Detroit, Mich.) by a conventional method of double dilution in accordance with recommendations of NCCLS (The National Committee for Clinical Laboratory Standards). Each test microorganism was inoculated to the final inoculum size of 5×10^5 cfu/ml and the incubation was carried out in an […] manner at 37° C. during 18 hours. The MIC in the liquid medium was defined as the lowest concentration of an antibacterial agent inhibiting visible growth in microdilutional containers. Control organisms were obtained from ATCC (The American Type Culture Collection). All standards were identified by a standard procedure and were storaged at −70° C.

[2] = tested on: Staphylococcus aureus ATCC 6538 P; experiment: as above; format: cell-based; conditions: 37° C., 18 hours
Description: as §1

B. cereus ATCC 11778 = experiment: as above; format: cell-based; conditions: 37° C., 18 hours
Description: as §1

[3] = tested on: Streptococcus faecalis ATCC 8043; experiment: as above; format: cell-based; conditions: 37° C., 18 hours
Description: as §1

[4] = tested on: Escherichia coli ATCC 10536; experiment: as above; format: cell-based; conditions: 37° C., 18 hours
Description: as §1

S. aureus ATCC 29213 = experiment: as above; format: cell-based; conditions: 37° C., 18 hours
Description: as §1

[5] = tested on: Bacillus subtilis ATCC 6633; experiment: as above; format: cell-based; conditions: 37° C., 18 hours
Description: as §1

M. luteus ATCC 9341 = experiment: as above; format: cell-based; conditions: 37° C., 18 hours
Description: as §1

[6] = tested on: Micrococcus flavus ATCC 10240; experiment: as above; format: cell-based; conditions: 37° C., 18 hours
Description: as §1

[7] = tested on: Streptococcus pneumoniae clinical isolates (25); experiment: Antibacterial in vitro activity, MIC, clinical isolates; format: cell-based; conditions: 25 clinical isolates
Description: as §1

[8] = tested on: S. epidermidis clinical isolates (20); experiment: as above; format: cell-based; conditions: 20 clinical isolates
Description: as §1

[9] = tested on: Haemophilus influenzae clinical isolates (40); experiment: as above; format: cell-based; conditions: 40 clinical isolates
Description: as §1

[10] = tested on: Enterococcus sp. clinical isolates (35); experiment: as above; format: cell-based; conditions: 35 clinical isolates
Description: as §1

[11] = tested on: Staph. aureus. clinical isolates (77); experiment: as above; format: cell-based; conditions: 77 clinical isolates
Description: as §1

[12] = rat, in vivo, po, 20 mg/kg

SMILES: CC[C@H]1OC(=O)[C@H](C)[C@@H](O[C@H]2C[C@@](C)(OC)[C@@H](O)[C@H](C)O2)[C@H](C)[C@@H](O[C@@H]2O[C@H](C)C[C@H](N(C)C)[C@H]2O)[C@](C)(O)C[C@@H](C)CN(C)[C@H](C)[C@@H](O)[C@]1(C)OC [12-O-Methyl-azithromycin]
MIC [1]: 0.03 µg/mL (≈ 0.0393 µM) | MIC ([2]; Mueller-Hinton medium): 0.25 µg/mL (≈ 0.328 µM) | MIC (B. cereus ATCC 11778; Mueller-Hinton medium): 0.25 µg/mL (≈ 0.328 µM) | MIC ([3]; Mueller-Hinton medium): 0.25 µg/mL (≈ 0.328 µM) | MIC ([4]; Mueller-Hinton medium): 0.5 µg/mL (≈ 0.655 µM) | MIC (S. aureus ATCC 29213; Mueller-Hinton medium): 0.25 µg/mL (≈ 0.328 µM) | MIC ([5]; Mueller-Hinton medium): 1 µg/mL (≈ 1.31 µM) | MIC (M. luteus ATCC 9341; Mueller-Hinton medium): 0.03 µg/mL (≈ 0.0393 µM) | MIC ([6]; Mueller-Hinton medium): 0.12 µg/mL (≈ 0.157 µM) | MIC 50% [7]: 0.03 µg/mL (≈ 0.0393 µM) | MIC 90% [7]: 0.12 µg/mL (≈ 0.157 µM) | MIC Range [7]: 0.03 to 0.12 µg/mL | MIC 50% [8]: 0.25 µg/mL (≈ 0.328 µM) | MIC 90% [8]: 4 µg/mL (≈ 5.24 µM) | MIC Range [8]: 0.12 to 8 µg/mL | MIC 50% [9]: 0.12 µg/mL (≈ 0.157 µM) | MIC 90% [9]: 0.25 µg/mL (≈ 0.328 µM) | MIC Range [9]: 0.06 to 0.5 µg/mL | MIC 50% [10]: 0.5 µg/mL (≈ 0.655 µM) | MIC 90% [10]: 8 µg/mL (≈ 10.5 µM) | MIC Range [10]: 0.12 to 8 µg/mL | MIC 50% [11]: 0.25 µg/mL (≈ 0.328 µM) | MIC 90% [11]: 1 µg/mL (≈ 1.31 µM) | MIC Range [11]: 0.12 to 2 µg/mL | Cmax (maximum substance concentration in serum) [12]: 248.8 ng/mL | absorption in the serum [12]: very fast absorbed | half-life [12]: 5.2 h | time at which the maximum substance concentration was achieved [12]: 2 h | time of secondary maximum after the application [12]: 4 h | total AUC [12]: 1993.4 ng·h/mL

MIC ([1]; read-out: MIC): 0.5 µg/mL (≈ 0.668 µM) | MIC ([2]; ATCC6538, Mueller-Hinton medium, read-out: MIC): 1 µg/mL (≈ 1.34 µM) | MIC (B. cereus ATCC 11778; Bacillus cereus, ATCC11778, Mueller-Hinton medium, read-out: MIC): 1 µg/mL (≈ 1.34 µM) | MIC ([3]; Enterococcus faecalis, ATCC8043, Mueller-Hinton medium, read-out: MIC): 0.5 µg/mL (≈ 0.668 µM) | MIC ([4]; ATCC10536, Mueller-Hinton medium, read-out: MIC): 1 µg/mL (≈ 1.34 µM) | MIC (S. aureus ATCC 29213; Staphylococcus aureus, ATCC29213, Mueller-Hinton medium, read-out: MIC): 0.25 µg/mL (≈ 0.334 µM) | MIC ([5]; ATCC6633, Mueller-Hinton medium, read-out: MIC): 4 µg/mL (≈ 5.34 µM) | MIC (M. luteus ATCC 9341; Micrococcus luteus, ATCC9341, Mueller-Hinton medium, read-out: MIC): 0.06 µg/mL (≈ 0.0801 µM) | MIC ([6]; ATCC10240, Mueller-Hinton medium, read-out: MIC): 0.5 µg/mL (≈ 0.668 µM) | MIC50 [7]: 0.05 µg/mL (≈ 0.0668 µM) | MIC90 [7]: 0.12 µg/mL (≈ 0.16 µM) | MIC Range [7]: 0.03 to 0.25 µg/mL | MIC Range [8]: 0.25 to 16 µg/mL | MIC50 ([8]; Staphylococcus epidermidis): 0.25 µg/mL (≈ 0.334 µM) | MIC90 ([8]; Staphylococcus epidermidis): 8 µg/mL (≈ 10.7 µM) | MIC50 [9]: 0.25 µg/mL (≈ 0.334 µM) | MIC90 [9]: 0.5 µg/mL (≈ 0.668 µM) | MIC Range [9]: 0.12 to 0.5 µg/mL | MIC50 [10]: 1 µg/mL (≈ 1.34 µM) | MIC90 [10]: 16 µg/mL (≈ 21.4 µM) | MIC Range [10]: 0.25 to 16 µg/mL | MIC Range [11]: 0.25 to 8 µg/mL | MIC50 ([11]; Staphylococcus aureus): 1 µg/mL (≈ 1.34 µM) | MIC90 ([11]; Staphylococcus aureus): 4 µg/mL (≈ 5.34 µM)
SMILES: CC[C@H]1OC(=O)[C@H](C)[C@@H](O[C@H]2C[C@@](C)(OC)[C@@H](O)[C@H](C)O2)[C@H](C)[C@@H](O[C@@H]2O[C@H](C)C[C@H](N(C)C)[C@H]2O)[C@](C)(O)C[C@@H](C)CN(C)[C@H](C)[C@@H](O)[C@]1(C)O [Azithromycin, 9-deoxo-9a-methyl-9a-aza-9a-homoerythromycin, reference compound]
